Experiment [1] has as its system Streptococcus sp. 'group A'. The experiment is described as follows: growth inhibition of control SK(-) GAS strain, dose response, counter-screen for streptokinase expression inhibitor project, luminescence, kanamycin, BacTiterGlo, confirmation (AID 1900). It counts as functional, organism-based.
Experiment [2] concerns the target T1, Streptokinase A (Streptococcus pyogenes serotype M1, UniProt P10520).
T1 sequence (P10520 whole entry): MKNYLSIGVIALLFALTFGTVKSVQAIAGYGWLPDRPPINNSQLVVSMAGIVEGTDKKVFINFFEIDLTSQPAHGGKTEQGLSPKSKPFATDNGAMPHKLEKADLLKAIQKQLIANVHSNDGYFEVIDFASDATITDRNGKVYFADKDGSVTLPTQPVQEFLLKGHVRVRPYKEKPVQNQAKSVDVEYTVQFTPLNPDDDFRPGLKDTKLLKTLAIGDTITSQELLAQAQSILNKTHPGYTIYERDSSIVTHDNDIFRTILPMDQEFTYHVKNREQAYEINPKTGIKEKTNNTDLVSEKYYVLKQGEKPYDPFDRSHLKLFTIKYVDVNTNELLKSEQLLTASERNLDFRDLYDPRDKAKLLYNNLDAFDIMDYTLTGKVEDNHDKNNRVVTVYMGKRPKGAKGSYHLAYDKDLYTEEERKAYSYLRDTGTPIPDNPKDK
The experiment in a line: S. pyogenes streptokinase expression inhibitors, potency, dose response, plasminogen activation absorbance, OD405 (AID 1914).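 Note: secreted streptokinase activity via plasminogen activation per viability signal from cell pellet.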 It counts as functional, Streptococcus pyogenes M1 GAS.

Experiment [3] has as its system Streptococcus. The experiment in a line: Group A Streptococcus viability loss, dose response, counter-screen for streptokinase expression inhibitor project, luminescence, BacTiterGlo (AID 1915).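 Note: potency for reduction of bacterial viability or growth.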 It counts as functional, organism-based.
Experiment [4] has as its target T2, Heat shock factor protein 1 (Mus musculus, UniProt P38532).
T2 sequence (P38532 whole entry): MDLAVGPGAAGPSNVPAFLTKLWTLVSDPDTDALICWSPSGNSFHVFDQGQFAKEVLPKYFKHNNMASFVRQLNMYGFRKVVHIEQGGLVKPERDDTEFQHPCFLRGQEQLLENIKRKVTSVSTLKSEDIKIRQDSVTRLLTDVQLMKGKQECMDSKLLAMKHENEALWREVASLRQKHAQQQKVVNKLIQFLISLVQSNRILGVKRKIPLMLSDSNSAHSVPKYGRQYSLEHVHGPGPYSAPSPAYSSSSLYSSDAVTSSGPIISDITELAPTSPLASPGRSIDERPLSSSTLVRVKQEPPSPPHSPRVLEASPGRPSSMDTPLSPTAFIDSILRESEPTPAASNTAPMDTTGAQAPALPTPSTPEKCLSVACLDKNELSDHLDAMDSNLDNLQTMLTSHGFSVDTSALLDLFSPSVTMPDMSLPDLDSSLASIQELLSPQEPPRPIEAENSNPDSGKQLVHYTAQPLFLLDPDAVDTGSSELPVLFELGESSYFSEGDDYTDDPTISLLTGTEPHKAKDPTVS
The experiment in a line: inhibition of MG132-induced HSE-luciferase signal, confirmation, cell-based, NIH3T3, luminescence, dose retest (AID 2382).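 Note: NIH3T3 fibroblasts with HSF1-driven luciferase reporter stressed by proteasome inhibitor MG132; luminescence from HSF1-driven luciferase expression after 8 hours of MG132 stress.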 It is filed as functional.

The target in experiment [5] is T2, Heat shock factor protein 1. The experiment is described as follows: HSF1 potentiators in luciferase reporter cells, confirmation, cell-based, NIH3T3, luminescence, dose retest (AID 435004).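 Note: stress induced by proteasome inhibitor MG132 added 30 min after compound; luciferase reporter driven by HSF1 response element in NIH3T3 cells; actives raise luminescence as potentiators of the MG132 stress response.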 It is filed as functional.
Experiment [6] concerns the target Cytochrome P450 2C19 (Homo sapiens, UniProt P33261). The experiment is described as follows: Cytochrome panel assay with activity outcomes. Panel member name: p450-cyp2c19 Compounds with AC50 equal or less than 10 uM are considered active. It counts as functional. As to conditions: read-out: AC50.
Experiment [7] in a line: Luminescence Cell-Based Dose Confirmation HTS to Identify Activators of 5'UTR Stem-Loop Driven Alpha-Synuclein mRNA Translation in H4 Neuroglioblastoma Cells. [Related pubchem assays: 1829 (Project Summary), 1814 (Primary HTS)]. It is filed as functional.
Experiment [8] has as its system H4. The experiment is described as follows: Luminescence Cell-Based Dose Response HTS to Identify Activators of 5'UTR Stem-Loop Driven Prion Protein mRNA Translation in H4 Neuroglioblastoma Cells. [Related pubchem assays: 1829 (Project Summary), 1814 (Primary HTS)]. It is filed as functional. As to conditions: Homo sapiens.
A short description of experiment [9]: Luminescence Cell-Based Dose Response HTS to Identify Activators of Luciferase Translation or Activity in H4 […] Cells. [Related pubchem assays: 1829 (Project Summary), 1814 (Primary HTS)]. It counts as functional.
The target of experiment [10] is T3, Rac GTPase-activating protein 1 (Homo sapiens, UniProt Q9H0H5).
T3 sequence (Q9H0H5 whole entry): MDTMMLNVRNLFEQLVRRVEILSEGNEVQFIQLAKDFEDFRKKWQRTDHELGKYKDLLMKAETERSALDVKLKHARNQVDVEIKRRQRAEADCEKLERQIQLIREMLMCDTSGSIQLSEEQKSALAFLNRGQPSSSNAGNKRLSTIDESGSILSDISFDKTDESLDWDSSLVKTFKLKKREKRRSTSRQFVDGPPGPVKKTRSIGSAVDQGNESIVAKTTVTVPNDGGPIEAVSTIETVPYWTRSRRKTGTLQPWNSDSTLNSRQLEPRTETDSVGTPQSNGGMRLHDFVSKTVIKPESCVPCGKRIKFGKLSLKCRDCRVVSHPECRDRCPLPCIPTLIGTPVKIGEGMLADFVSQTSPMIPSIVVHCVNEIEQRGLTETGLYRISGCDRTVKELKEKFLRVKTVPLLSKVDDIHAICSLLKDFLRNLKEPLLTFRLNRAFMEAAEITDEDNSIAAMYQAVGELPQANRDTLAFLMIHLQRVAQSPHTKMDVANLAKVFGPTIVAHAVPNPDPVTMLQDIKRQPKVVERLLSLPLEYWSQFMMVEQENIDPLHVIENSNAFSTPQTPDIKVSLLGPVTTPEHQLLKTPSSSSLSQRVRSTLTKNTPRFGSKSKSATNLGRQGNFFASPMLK
The experiment in a line: MgcRacGAP GTPase-activating activity inhibitors, confirmation, biochemical, ADP Hunter fluorescence, primary and confirmatory (AID 624330). It counts as functional.

Molecules are shown by their SMILES. Active and inactive are the calls of the source. Where only a bound is given, the exact number is not on record here.

Cytochrome P450 2C19, sequence (P33261 whole entry): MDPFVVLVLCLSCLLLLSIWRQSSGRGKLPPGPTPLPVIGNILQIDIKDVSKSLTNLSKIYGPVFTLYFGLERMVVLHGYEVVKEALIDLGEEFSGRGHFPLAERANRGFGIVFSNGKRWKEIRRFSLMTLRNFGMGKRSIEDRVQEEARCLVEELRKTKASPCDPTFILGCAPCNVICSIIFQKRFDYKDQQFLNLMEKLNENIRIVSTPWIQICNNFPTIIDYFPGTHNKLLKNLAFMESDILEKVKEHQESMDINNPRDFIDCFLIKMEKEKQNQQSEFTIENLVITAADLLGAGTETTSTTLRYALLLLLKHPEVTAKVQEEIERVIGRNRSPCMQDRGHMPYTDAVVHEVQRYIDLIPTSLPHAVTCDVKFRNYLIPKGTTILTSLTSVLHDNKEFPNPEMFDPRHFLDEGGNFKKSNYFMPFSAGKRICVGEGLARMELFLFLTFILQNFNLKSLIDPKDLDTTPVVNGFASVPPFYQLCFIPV

Take `COc1ccc(C2/C=C\CN(C(=O)c3ccccc3)CC(=O)N2Cc2ccc(F)cc2)cc1` (stereo unspecified): the EC50 in experiment [1], in [2] and in [3] was > 150 µM (not active) in each case. With `Cc1cc(C)cc(OCC(O)CN2CCN(C(=O)c3ccco3)CC2)c1` (stereo unspecified), the EC50 in [4] is recorded as > 195 µM (not active). Same read-out and setting: next, `C=CCn1/c(=N/C(=O)C2CC2)sc2cc(NC(C)=O)ccc21`: > 195 µM (not active).

In the case of `CC(C)C[C@H](NC(=O)c1[nH]cnc1C(=O)N[C@@H](C)C(=O)OC(C)(C)C)C(=O)OCc1ccccc1`, the EC50 was 8.12 µM (active) in [1], > 150 µM (not active) in [2] and 40.9 µM (active) in experiment [3]. `N=c1c(S(=O)(=O)c2ccc(Br)cc2)cc2c(=O)n3ccccc3nc2n1C1CCCC1`: in experiment [5], the EC50 was > 260 µM (inactive). With `O=[N+]([O-])c1ccc(N2CCNCC2)cc1NCC1CCCO1` (stereo unspecified), the concentration at half-maximal activity (AC50) in [6] was 39.8 µM (inconclusive). Also, the EC50 in experiment [4] is given as > 195 µM (not active). Take `COc1ccccc1N1CC(C(=O)Nc2nnc(SCC(=O)N3CCCC3)s2)CC1=O` (stereo unspecified): the EC50 in experiment [1], in experiment [2] and in [3] was > 150 µM (not active) each time. Consider `CCOC(=O)c1c(C)nc2c(C)cccn12`, for which the concentration for a half-maximal effect (EC50) in experiment [4] is reported as > 195 µM (not active). Turning to `O=C(c1ccccc1)c1ccc(OCC(O)CN2CCCC2)cc1` (stereo unspecified), the EC50 in [4] is listed as > 195 µM (not active). Still for that read-out and setting: for `COc1ccc(NC(=O)CSc2nnc3ccc(-c4ccncc4)nn23)cc1OC` the value was > 195 µM (not active). For the compound `O=C(Nc1ccc(F)c(Cl)c1)Nc1csc2ccccc12`, the EC50 is 6.52 µM (active) in experiment [1], > 50 µM (not active) in experiment [2] and 5.69 µM (active) in experiment [3].

As for `CCc1nnc(NC(=O)C(NC(=O)c2ccccc2Cl)C(C)C)s1` (stereo unspecified), in experiment [5], the EC50 is > 260 µM (inactive). For the compound `O=c1c2cccnc2n(-c2ccccc2)n1Cc1c(Cl)cccc1Cl`, the EC50 in experiment [4] is given as > 195 µM (not active). On to `CN(C)c1ccc(/C=C2/C(=N\O)C3CCN2CC3)cc1`, for which the concentration giving a half-maximal response (EC50) in experiment [7] was 26 µM (active); in experiment [8], 28.8 µM (inconclusive); in [9], 6.23 µM (active). Moreover, in experiment [10], the half-inhibitory concentration (IC50) was 75.5 µM (active). In the case of `CCCCCCCN1N=C(C)C(C(=O)c2ccccc2)C1=O` (stereo unspecified), the results for the EC50 in experiment [1], in experiment [2] and in [3] were 2.89 µM (active), > 150 µM (not active) and 30.9 µM (active), respectively. The like results for `CN(CC1CCCO1)S(=O)(=O)c1ccc(C(=O)Nc2ccccc2F)cc1` (stereo unspecified) were, in that order, > 150 µM (not active), > 150 µM (not active) and > 150 µM (not active). With `COc1cccc(NN=C2C(=O)NC(=S)NC2=O)c1`, the concentration for a half-maximal effect (EC50) in [5] was 9.18 µM (active). For `Cc1sc2nc(C3CC3)nc(SCC(=O)N3CCc4ccccc4C3)c2c1C`, the EC50 in experiment [5] was 28.6 µM (active).

Turning to `Cc1ccc(NC(=O)NC2=N/C(=C(/C#N)C(=O)N3CCCC3)c3ccccc32)cc1`, in [4], the EC50 is listed as > 195 µM (not active). The same measure, in the same setting: next, `O=[N+]([O-])c1ccc(NCCOc2ccccc2Cl)nc1`: > 195 µM (not active). Take `CC(=O)Oc1ccc(Cn2cnc3cc4ccccc4cc32)cc1`: the half-maximal effective concentration (EC50) in [5] was 44.4 µM (active). Consider `O=C(CNC(=O)c1ccco1)Nc1ccc2c(c1)OCCO2`, for which the concentration giving a half-maximal response (EC50) in [4] is 0.274 µM (active). Turning to `COc1ccc(S(=O)(=O)Nc2ccncc2)c(C)c1C`, the EC50 in [5] is > 260 µM (inactive). Same read-out and setting: next, `N#Cc1cc(-c2ccccc2)cnc1Sc1ccccc1`: > 260 µM (inactive). Take `COc1ccc(-c2oc3ccccc3c2C(=O)Oc2ccccc2)cc1`: in experiment [4], the EC50 is 152 µM (active). In the case of `COc1ccccc1-c1[nH]nc2c1[C@H](C)CC[C@H]2C(C)C`, the EC50 is 10.9 µM (active) in [1], > 150 µM (not active) in experiment [2] and > 150 µM (not active) in experiment [3]. With `c1ccc(-c2nc(C3CCCCC3)c3ccccc3n2)cc1`, the EC50 in [1] was 3.71 µM (active); in experiment [2], 21.6 µM (active); in [3], 25.2 µM (active). Take `O=C(CSc1nnc(-c2c[nH]c3ccccc23)o1)c1ccccc1`: in [5], the EC50 is > 260 µM (inactive). Same read-out and setting: next, `CCCc1n[nH]c2c1C1(C(=O)N(Cc3ccccc3)c3ccccc31)C(C(=O)OC)=C(N)O2` (stereo unspecified): > 260 µM (inactive); `COC(=O)[C@@H](NC(=O)NC1CCCc2ccccc21)C(C)C` (stereo partly specified): > 260 µM (inactive). As to `Cc1c(Cl)cccc1NC(=O)c1cccc(OC(F)F)c1`, the EC50 in experiment [4] is listed as > 195 µM (not active).

These data come from ChEMBL document CHEMBL1201862, “PubChem BioAssay data set” (2004).
